The values that follow come from ChEMBL document CHEMBL3098117, “Identification and optimization of an aminoalcohol-carbazole series with antimalarial properties” (ACS Med Chem Lett, 2013).

Data set [1] concerns the target T1, A-type voltage-gated potassium channel KCND3 (Homo sapiens, UniProt Q9UK17).
T1 sequence (Q9UK17 whole entry): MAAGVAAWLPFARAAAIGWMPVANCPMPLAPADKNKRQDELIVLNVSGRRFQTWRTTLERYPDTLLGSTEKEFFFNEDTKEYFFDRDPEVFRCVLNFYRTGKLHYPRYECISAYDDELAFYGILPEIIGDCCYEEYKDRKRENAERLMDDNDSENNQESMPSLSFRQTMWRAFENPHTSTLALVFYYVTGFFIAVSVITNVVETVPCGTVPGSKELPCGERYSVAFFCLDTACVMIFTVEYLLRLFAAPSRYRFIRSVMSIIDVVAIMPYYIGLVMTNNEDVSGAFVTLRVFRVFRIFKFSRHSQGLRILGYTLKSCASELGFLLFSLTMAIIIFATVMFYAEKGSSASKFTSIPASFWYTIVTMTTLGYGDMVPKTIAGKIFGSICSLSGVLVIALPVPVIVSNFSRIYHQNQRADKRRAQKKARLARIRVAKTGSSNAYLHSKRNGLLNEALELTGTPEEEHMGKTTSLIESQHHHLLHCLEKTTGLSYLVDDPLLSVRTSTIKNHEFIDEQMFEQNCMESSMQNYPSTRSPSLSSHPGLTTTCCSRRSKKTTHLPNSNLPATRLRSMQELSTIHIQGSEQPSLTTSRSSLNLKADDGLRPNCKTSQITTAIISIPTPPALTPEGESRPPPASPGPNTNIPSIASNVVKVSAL
Kind of data set: Inhibition of Kv4.3 channel (unknown origin).

Data set [2] can be described thus: Cmax in NMRI mouse at 1 mg/kg, iv and 5 mg/kg, po by LC-MS/MS analysis. Type of data set: ADME, organism-based. The note with it: in vivo.

Usually Cmax stands for the peak of the concentration-time curve.

Turning to `OC(CNC1CCCCC1)Cn1c2ccc(Br)cc2c2cc(Br)ccc21` (racemic), in data set [1], the “inhibition (INH)” value is listed as “Not Active”. Also, the Cmax in data set [2] turned out to be 158 ng/mL.
